The values that follow come from patent US5024994A, “Renin inhibitors IV” (Warner-Lambert Company, priority 1988, dated 1991).

In the first assay the target is T1, renin (Homo sapiens, UniProt P00797).
T1 sequence (P00797 67-406): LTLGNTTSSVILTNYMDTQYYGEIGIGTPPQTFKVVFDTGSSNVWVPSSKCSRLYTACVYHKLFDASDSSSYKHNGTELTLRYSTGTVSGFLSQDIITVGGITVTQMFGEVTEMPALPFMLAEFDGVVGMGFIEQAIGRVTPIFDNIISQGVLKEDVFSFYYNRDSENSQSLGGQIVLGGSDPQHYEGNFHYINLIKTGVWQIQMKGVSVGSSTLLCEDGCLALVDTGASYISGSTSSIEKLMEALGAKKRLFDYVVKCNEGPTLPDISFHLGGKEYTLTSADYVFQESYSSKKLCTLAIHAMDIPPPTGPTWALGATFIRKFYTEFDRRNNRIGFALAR
Briefly: in vitro renin inhibitory activity, radioimmunoassay for angiotensin I. The format is biochemical.
Conditions: not given
How it is done:
The effectiveness of the aforementioned compounds is determined by a test for in vitro renin inhibitory activity. This activity is determined by a standard radioimmunoassay for angiotensin I. In this assay the enzyme, renin, incubated for two hours at 37° in the presence of a substrate, angiotensinogen, generates the product, angiotensin I. Test compounds are added to the incubation mixture.
One may read the IC50 as the point on the concentration scale where inhibition reaches its midpoint. The molecule `CCC(C)CNC(=O)C[C@H](O)[C@H](CC(C)C)NC(=O)C(NC(=O)C(CC(=O)N1CCOCC1)Cc1cccc2ccccc12)C(=O)OC` (some centres unmarked) returned an IC50 of 98 nM.

The molecule `CCC(C)CNC(=O)C[C@H](O)[C@H](CC(C)C)NC(=O)[C@H](CCCCNC(=NC#N)SC)NC(=O)C(Cc1cccc2ccccc12)Cc1cccc2ccccc12` (some centres unmarked) came in with an IC50 of 19 nM.

`CCC(C)CNC(=O)C[C@H](O)[C@H](CC(C)C)NC(=O)[C@H](CC#N)NC(=O)[C@H](Cc1ccccc1)NC(=O)OC(C)(C)C` (some centres unmarked) displayed an IC50 of 260 nM.

The molecule `CC(C)C[C@H](NC(=O)C[C@H](O)[C@H](CC(C)C)NC(=O)C(CCCC1CO1)NC(=O)C(Cc1cccc2ccccc12)Cc1cccc2ccccc12)C(=O)NCc1ccccc1` (single isomer, unassigned) [drawing 65] had an IC50 of 57 nM.

Staying with this assay, now noted: at 10^-6 molar concentration; read-out: percent inhibition of renin activity.
As a reminder, the inhibition is the drop in the measured response relative to a control, in per cent. As to `CC(C)C[C@H](NC(=O)C[C@H](O)[C@H](CC(C)C)NC(=O)C(CCCC1CO1)NC(=O)C(Cc1cccc2ccccc12)Cc1cccc2ccccc12)C(=O)NCc1ccccc1` (single isomer, unassigned) [drawing 66], the inhibition at 1 µM worked out at 47%.

Consider `CC[C@H](C)CNC(=O)C[C@H](O)[C@H](CC(C)C)NC(=O)C(NC(=O)C(Cc1cccc2ccccc12)Cc1cccc2ccccc12)C(N)=O` (some centres unmarked), for which the inhibition at 1 µM was found to be 24%.

Still in this assay, the particulars now being: read-out: IC50.
On to `CCC(C)CNC(=O)C[C@H](O)[C@H](CC1CCCCC1)NC(=O)[C@H](CCCCNC(=N)N[N+](=O)[O-])NC(=O)C(Cc1cccc2ccccc12)Cc1cccc2ccccc12` (some centres unmarked), for which the IC50 turned out to be 15 nM.

Take `CC[C@H](C)CNC(=O)C[C@H](O)[C@H](CC(C)C)NC(=O)C(CCCCCC(=O)NC)NC(=O)C(Cc1cccc2ccccc12)Cc1cccc2ccccc12` (some centres unmarked): the IC50 was 1200 nM.

On to `CCOC(=O)C(NC(=O)C(Cc1cccc2ccccc12)Cc1cccc2ccccc12)C(=O)N[C@@H](CC(C)C)[C@@H](O)CC(=O)NC[C@@H](C)CC` (some centres unmarked), for which the IC50 turned out to be 23 nM.

Take `C=CCCCC(NC(=O)C(Cc1cccc2ccccc12)Cc1cccc2ccccc12)C(=O)N[C@@H](CC(C)C)[C@@H](O)CC(=O)N[C@@H](CC(C)C)C(=O)NCc1ccccc1` (single isomer, unassigned; isomer a) [Example 48, DNMA-NHCH(CH2 CH2 CH2 CH=CH2)CO-STA-LEU-NHCH2 Ph (ISOMER A)]: the concentration for half-maximal inhibition (IC50) is 91 nM.

`CC(C)C[C@H](NC(=O)C[C@H](O)[C@H](CC(C)C)NC(=O)C(CCCCCCNC(=O)OCc1ccccc1)NC(=O)C(Cc1cccc2ccccc12)Cc1cccc2ccccc12)C(=O)NCc1ccccc1` (some centres unmarked): the IC50 turned out to be 59 nM.

With `CCOC(=O)C(NC(=O)C(Cc1cccc2ccccc12)Cc1cccc2ccccc12)C(=O)N[C@@H](CC(C)C)[C@@H](O)CC(=O)N[C@@H](CC(C)C)C(=O)NCc1ccccn1` (some centres unmarked), the half-inhibitory concentration (IC50) turned out to be 13 nM.

Turning to `CNC(=S)NCC#CCC(NC(=O)C(Cc1cccc2ccccc12)Cc1cccc2ccccc12)C(=O)N[C@@H](CC1CCCCC1)[C@@H](O)CC(=O)NCCN1CCOCC1` (some centres unmarked), the IC50 came out at 48 nM.

As to `CNC(=S)NCCCC[C@H](NC(=O)C(CC(=O)N1CCOCC1)Cc1cccc2ccccc12)C(=O)N[C@@H](CC(C)C)[C@@H](O)CC(=O)NCCN1CCOCC1` (some centres unmarked), the IC50 turned out to be 560 nM.

With `CCC(C)CNC(=O)C[C@H](O)[C@H](CC(C)C)NC(=O)[C@H](CCCCn1cccc1)NC(=O)C(Cc1cccc2ccccc12)Cc1cccc2ccccc12` (some centres unmarked), the IC50 is 540 nM.

For the molecule `CCC(C)CNC(=O)C[C@H](O)[C@H](CC(C)C)NC(=O)C(C/C=C\CNC(C)=O)NC(=O)C(Cc1cccc2ccccc12)Cc1cccc2ccccc12` (some centres unmarked), the concentration for half-maximal inhibition (IC50) is 100 nM.

On to `CC[C@H](C)CNC(=O)C[C@H](O)[C@H](CC(C)C)NC(=O)[C@H](CCCNC(=S)NC)NC(=O)C(Cc1cccc2ccccc12)Cc1cccc2ccccc12`, for which the IC50 turned out to be 280 nM.

Take `CC(C)C[C@H](NC(=O)C[C@H](O)[C@H](CC(C)C)NC(=O)[C@H](CCCN1C(=O)c2ccccc2C1=O)NC(=O)[C@H](Cc1ccccc1)NC(=O)OC(C)(C)C)C(=O)NCc1ccccc1` [Example 4, BOC-PHE-ORN(PHT)-STA-LEU-NHCH2 Ph]: the IC50 stood at 910 nM.

For `CCC(C)CNC(=O)C[C@H](O)[C@H](CC(C)C)NC(=O)[C@H](CCCCNC(=NC#N)NC)NC(=O)C(Cc1cccc2ccccc12)Cc1cccc2ccccc12` (some centres unmarked), the IC50 is 15 nM.

For `CC(C)(C)OC(=O)NCC#CCC(NC(=O)C(Cc1cccc2ccccc12)Cc1cccc2ccccc12)C(=O)N[C@@H](CC1CCCCC1)[C@@H](O)CC(=O)NCCN1CCOCC1` (some centres unmarked), the IC50 was 700 nM.

In the case of `CC[C@H](C)CNC(=O)C[C@H](O)[C@H](CC(C)C)NC(=O)[C@H](CCCNC(=O)NC)NC(=O)C(Cc1cccc2ccccc12)Cc1cccc2ccccc12`, the IC50 worked out at 890 nM.

With `CC[C@H](C)CNC(=O)C[C@H](O)[C@H](CC(C)C)NC(=O)[C@H](CCCCNC(=O)C[S+](C)[O-])NC(=O)C(Cc1cccc2ccccc12)Cc1cccc2ccccc12` (some centres unmarked), the IC50 turned out to be 41 nM.

`CC[C@H](C)CNC(=O)C[C@H](O)[C@H](CC(C)C)NC(=O)C(Cc1nc2ccccc2[nH]1)NC(=O)C(Cc1cccc2ccccc12)Cc1cccc2ccccc12` (some centres unmarked): the IC50 came out at 2800 nM.

On to `CNC(=S)NCCCC[C@H](NC(=O)C(CC(=O)N1CCOCC1)Cc1cccc2ccccc12)C(=O)N[C@@H](CC1CCCCC1)[C@@H](O)CC(=O)NCCN1CCOCC1` (some centres unmarked), for which the IC50 is 20 nM.

With `CC(=O)NCC#CCC(NC(=O)C(Cc1cccc2ccccc12)Cc1cccc2ccccc12)C(=O)N[C@@H](CC1CCCCC1)[C@@H](O)CC(=O)NCCN1CCOCC1` (some centres unmarked), the IC50 amounted to 8.6 nM.

For `CCC(C)CNC(=O)C[C@H](O)[C@H](CC(C)C)NC(=O)[C@H](CCCCNC(=O)NC)NC(=O)C(Cc1cccc2ccccc12)Cc1cccc2ccccc12` (some centres unmarked), the IC50 worked out at 29 nM.

In the case of `CC[C@H](C)CNC(=O)C[C@H](O)[C@H](CC(C)C)NC(=O)[C@H](CCCCNC(N)=O)NC(=O)C(Cc1cccc2ccccc12)Cc1cccc2ccccc12`, the IC50 came out at 50 nM.

On to `CCC(C)CNC(=O)C[C@H](O)[C@H](CC(C)C)NC(=O)C(CCCCCNC(=S)NC)NC(=O)C(Cc1cccc2ccccc12)Cc1cccc2ccccc12` (some centres unmarked), for which the IC50 is 40 nM.

With `CCC(C)CNC(=O)C[C@H](O)[C@H](CC(C)C)NC(=O)[C@H](CCCCNC(N)=NC#N)NC(=O)C(Cc1cccc2ccccc12)Cc1cccc2ccccc12` (some centres unmarked), the IC50 is 18 nM.

On to `CC[C@H](C)CNC(=O)C[C@H](O)[C@H](CC(C)C)NC(=O)[C@H](CCCCNC(=S)NC)NC(=O)C(Cc1ccccc1)Cc1cccc2ccccc12` (some centres unmarked), for which the IC50 was found to be 140 nM.

Regarding `CC[C@H](C)CNC(=O)C[C@H](O)[C@H](CC(C)C)NC(=O)C(NC(=O)C(Cc1cccc2ccccc12)Cc1cccc2ccccc12)C(=O)NCCc1cnc[nH]1` (some centres unmarked), the IC50 amounted to 3100 nM.

With `CSC(=NC#N)NCCCC[C@H](NC(=O)C(CC(=O)N1CCOCC1)Cc1cccc2ccccc12)C(=O)N[C@@H](CC(C)C)[C@@H](O)CC(=O)NCCN1CCOCC1` (some centres unmarked), the IC50 was determined as 350 nM.

Turning to `C=CCCCC(NC(=O)C(Cc1cccc2ccccc12)Cc1cccc2ccccc12)C(=O)N[C@@H](CC(C)C)[C@@H](O)CC(=O)N[C@@H](CC(C)C)C(=O)NCc1ccccc1` (single isomer, unassigned; isomer b) [Example 49, DNMA-NHCH(CH2 CH2 CH2 CH=CH2)CO-STA-LEU-NHCH2 Ph (ISOMER B)], the IC50 amounted to 3500 nM.

`CCCCNC(=S)NCCCC[C@H](NC(=O)C(Cc1cccc2ccccc12)Cc1cccc2ccccc12)C(=O)N[C@@H](CC(C)C)[C@@H](O)CC(=O)NC[C@@H](C)CC`: the IC50 is 46 nM.

`CC[C@H](C)CNC(=O)C[C@H](O)[C@H](CC(C)C)NC(=O)[C@H](CCCCNC(=O)OC)NC(=O)C(Cc1cccc2ccccc12)Cc1cccc2ccccc12` [Example 42, DNMA-LYS(CO2 CH3)-STA-NHCH2 CH(CH3)CH2 CH3]: the IC50 was 60 nM.

As to `O=CNCC#CCC(NC(=O)C(Cc1cccc2ccccc12)Cc1cccc2ccccc12)C(=O)N[C@@H](CC1CCCCC1)[C@@H](O)CC(=O)NCCN1CCOCC1` (some centres unmarked), the IC50 turned out to be 8 nM.

For `CC[C@H](C)CNC(=O)C[C@H](O)[C@H](CC(C)C)NC(=O)[C@H](CCCCNC(=O)CS(C)(=O)=O)NC(=O)C(Cc1cccc2ccccc12)Cc1cccc2ccccc12`, the IC50 worked out at 68 nM.

The same assay, now with this note: renin incubated two hours at 37° with angiotensinogen; molar concentration causing 50% inhibition; read-out: IC50.
Take DNMA-LYS(Z)-STA-LEU-NHCH2 Ph: the IC50 was found to be 2900 nM.
